According to the NIST ThermoML archive (doi:10.1016/j.fluid.2004.11.019):

Assay: xn = mol fraction of the nth substance listed
Conditions: Liquid

CCO [ethanol] + O
mass density [kg/m3]
Conditions | 100 kPa | 10000 kPa | 20000 kPa | 30000 kPa | 40000 kPa
323.15 K, x1 = 0.003 | – | – | – | 999 | 1003.1
323.15 K, x1 = 0.0042 | – | – | – | 998 | 1002
323.15 K, x1 = 0.0082 | – | – | – | 996.5 | 1000.5
323.15 K, x1 = 0.0119 | – | – | – | 995.2 | 999.2
323.15 K, x1 = 0.0158 | – | – | – | 993 | 996.9
323.15 K, x1 = 0.0184 | – | – | – | 991.5 | 995.5
323.15 K, x1 = 0.0219 | – | – | – | 990.4 | 994.4
323.15 K, x1 = 0.0255 | – | – | – | 988.7 | 992.7
323.15 K, x1 = 0.0279 | – | – | – | 987.1 | 991.1
323.15 K, x1 = 0.0315 | – | – | – | 986.3 | 990.2
323.15 K, x1 = 0.0366 | – | – | – | 983.6 | 987.6
323.15 K, x1 = 0.0392 | – | – | – | 982.4 | 986.3
323.15 K, x1 = 0.0439 | – | – | – | 980.8 | 984.7
323.15 K, x1 = 0.0483 | – | – | – | 978.8 | 982.7
323.15 K, x1 = 0.0516 | – | – | – | 978 | 982
323.15 K, x1 = 0.0559 | – | – | – | 976.6 | 980.5
323.15 K, x1 = 0.06 | – | – | – | 975.1 | 979.1
323.15 K, x1 = 0.0652 | – | – | – | 973.1 | 977
323.15 K, x1 = 0.0679 | – | – | – | 972.3 | 976.3
323.15 K, x1 = 0.0722 | – | – | – | 970.5 | 974.4
323.15 K, x1 = 0.0801 | – | – | – | 967.4 | 971.4
323.15 K, x1 = 0.084 | – | – | – | 967 | 970.9
323.15 K, x1 = 0.0879 | – | – | – | 965.3 | 969.2
323.15 K, x1 = 0.0926 | – | – | – | 963.7 | 967.6
323.15 K, x1 = 0.0958 | – | – | – | 962.6 | 966.5
323.15 K, x1 = 0.1006 | – | – | – | 961 | 964.9
323.15 K, x1 = 0.1111 | – | – | – | 957.3 | 961.3
323.15 K, x1 = 0.1225 | – | – | 949.2 | 953.4 | 957.4
323.15 K, x1 = 0.1296 | – | – | 946.9 | 951.1 | 955.2
323.15 K, x1 = 0.1402 | – | – | 943.3 | 947.6 | 951.7
323.15 K, x1 = 0.151 | – | – | 939.7 | 944 | 948.2
323.15 K, x1 = 0.1601 | – | – | 936.7 | 941.1 | 945.3
323.15 K, x1 = 0.1703 | – | – | 933.3 | 937.7 | 942
323.15 K, x1 = 0.18 | – | – | 930.1 | 934.6 | 938.9
323.15 K, x1 = 0.1903 | – | – | 926.8 | 931.4 | 935.8
323.15 K, x1 = 0.1996 | – | – | 923.8 | 928.4 | 932.9
323.15 K, x1 = 0.2269 | – | – | 915.3 | 920.1 | 924.7
323.15 K, x1 = 0.2502 | – | – | 908.5 | 913.5 | 918.2
323.15 K, x1 = 0.2745 | – | – | 901.6 | 906.7 | 911.5
323.15 K, x1 = 0.3009 | – | – | 894.7 | 899.8 | 904.8
323.15 K, x1 = 0.35 | – | – | 882.1 | 887.5 | 892.7
323.15 K, x1 = 0.4034 | – | – | 869.8 | 875.5 | 881
323.15 K, x1 = 0.4501 | – | – | 859.7 | 865.7 | 871.3
323.15 K, x1 = 0.498 | – | – | 850.6 | 856.8 | 862.6
323.15 K, x1 = 0.5501 | – | – | 841.2 | 847.6 | 853.6
323.15 K, x1 = 0.5998 | – | – | 833.5 | 839.6 | 845.8
323.15 K, x1 = 0.6489 | – | – | 825.3 | 832.1 | 838.5
323.15 K, x1 = 0.6967 | – | – | 818.4 | 825.4 | 831.9
323.15 K, x1 = 0.7475 | – | – | 811.7 | 818.8 | 825.5
323.15 K, x1 = 0.7996 | – | – | 804.9 | 812.3 | 819.1
323.15 K, x1 = 0.8484 | – | – | 799.1 | 806.6 | 813.6
323.15 K, x1 = 0.8993 | – | – | 793.2 | 800.9 | 808
323.15 K, x1 = 0.9503 | – | – | 787.7 | 795.6 | 802.8
323.15 K, x1 = 1 | – | – | 782.3 | 790.3 | 797.7
348.15 K, x1 = 0.003 | 973.1 | 977.5 | 981.9 | 986.1 | 990.1
348.15 K, x1 = 0.0042 | 971.9 | 976.3 | 980.6 | 984.8 | 988.8
348.15 K, x1 = 0.0082 | 970.7 | 975 | 979.4 | 983.6 | 987.6
348.15 K, x1 = 0.0119 | 969.1 | 973.4 | 977.7 | 981.9 | 986
348.15 K, x1 = 0.0158 | 966.6 | 971 | 975.3 | 979.4 | 983.5
348.15 K, x1 = 0.0184 | 965.4 | 969.6 | 973.9 | 978.1 | 982.1
348.15 K, x1 = 0.0219 | 963.9 | 968.2 | 972.6 | 976.7 | 980.8
348.15 K, x1 = 0.0255 | 962 | 966.4 | 970.7 | 975 | 979
348.15 K, x1 = 0.0279 | 960.4 | 964.8 | 969.1 | 973.3 | 977.3
348.15 K, x1 = 0.0315 | 959.4 | 963.8 | 968 | 972.3 | 976.3
348.15 K, x1 = 0.0366 | 956.7 | 961 | 965.3 | 969.5 | 973.6
348.15 K, x1 = 0.0392 | 955.3 | 959.6 | 963.8 | 968.1 | 972.1
348.15 K, x1 = 0.0439 | 953.5 | 957.8 | 962.1 | 966.3 | 970.4
348.15 K, x1 = 0.0483 | 951.2 | 955.6 | 959.9 | 964.1 | 968.2
348.15 K, x1 = 0.0516 | 950.2 | 954.6 | 958.9 | 963.2 | 967.3
348.15 K, x1 = 0.0559 | 948.8 | 953.2 | 957.5 | 961.7 | 965.9
348.15 K, x1 = 0.06 | 946.9 | 951.3 | 955.8 | 960 | 964.1
348.15 K, x1 = 0.0652 | 944.8 | 949.1 | 953.5 | 957.8 | 961.9
348.15 K, x1 = 0.0679 | 943.7 | 948.2 | 952.5 | 956.8 | 960.9
348.15 K, x1 = 0.0722 | 941.5 | 946.1 | 950.4 | 954.7 | 958.9
348.15 K, x1 = 0.0801 | 938.1 | 942.6 | 947 | 951.3 | 955.6
348.15 K, x1 = 0.084 | 937.5 | 941.9 | 946.3 | 950.7 | 954.9
348.15 K, x1 = 0.0879 | 935.3 | 939.9 | 944.4 | 948.8 | 953
348.15 K, x1 = 0.0926 | 933.6 | 938.1 | 942.6 | 947 | 951.3
348.15 K, x1 = 0.0958 | 932.2 | 936.8 | 941.3 | 945.7 | 950
348.15 K, x1 = 0.1006 | 930.2 | 934.9 | 939.4 | 943.9 | 948.1
348.15 K, x1 = 0.1111 | 925.9 | 930.7 | 935.3 | 939.8 | 944.2
348.15 K, x1 = 0.1225 | 921.5 | 926.3 | 931.1 | 935.6 | 940
348.15 K, x1 = 0.1296 | 918.7 | 923.6 | 928.3 | 932.9 | 937.4
348.15 K, x1 = 0.1402 | 914.6 | 919.5 | 924.4 | 929.1 | 933.7
348.15 K, x1 = 0.151 | 910.4 | 915.4 | 920.3 | 925.1 | 929.7
348.15 K, x1 = 0.1601 | 906.9 | 912.1 | 917.1 | 922 | 926.6
348.15 K, x1 = 0.1703 | 903.1 | 908.4 | 913.5 | 918.4 | 923.1
348.15 K, x1 = 0.18 | 899.5 | 904.8 | 910 | 915 | 919.8
348.15 K, x1 = 0.1903 | 895.8 | 901.3 | 906.5 | 911.6 | 916.4
348.15 K, x1 = 0.1996 | 892.6 | 898.1 | 903.4 | 908.5 | 913.4
348.15 K, x1 = 0.2269 | 883.1 | 888.9 | 894.4 | 899.7 | 904.8
348.15 K, x1 = 0.2502 | 875.6 | 881.6 | 887.3 | 892.8 | 898.1
348.15 K, x1 = 0.2745 | 868 | 874.2 | 880.2 | 885.8 | 891.1
348.15 K, x1 = 0.3009 | 860.4 | 866.8 | 872.9 | 878.6 | 884.2
348.15 K, x1 = 0.35 | 846.7 | 853.6 | 860 | 866.2 | 872
348.15 K, x1 = 0.4034 | 833.4 | 840.7 | 847.5 | 854 | 860
348.15 K, x1 = 0.4501 | 822.7 | 830.3 | 837.4 | 844.2 | 850.5
348.15 K, x1 = 0.498 | 812.7 | 820.7 | 828.1 | 835.1 | 841.6
348.15 K, x1 = 0.5501 | 802.6 | 811 | 818.7 | 825.9 | 832.7
348.15 K, x1 = 0.5998 | 793.8 | 802.5 | 810.5 | 818 | 824.9
348.15 K, x1 = 0.6489 | 785.6 | 794.6 | 802.9 | 810.6 | 817.8
348.15 K, x1 = 0.6967 | 778.2 | 787.6 | 796.1 | 804 | 811.3
348.15 K, x1 = 0.7475 | 770.9 | 780.7 | 789.4 | 797.6 | 805.1
348.15 K, x1 = 0.7996 | 763.9 | 774 | 783 | 791.3 | 799
348.15 K, x1 = 0.8484 | 757.6 | 768 | 777.3 | 785.8 | 793.6
348.15 K, x1 = 0.8993 | 751.5 | 762.1 | 771.6 | 780.3 | 788.3
348.15 K, x1 = 0.9503 | 745.7 | 756.7 | 766.4 | 775.2 | 783.4
348.15 K, x1 = 1 | 739.4 | 751.2 | 761.2 | 770.3 | 778.6
